Measurements reported in US4225529A, “Compositions containing platinum” (Johnson, Matthey & Co., Limited, priority 1977, dated 1980).

Legend:
L-1210 leukaemia = assay: antitumour activity against L1210 leukaemia in mice (% T/C); type: in vivo; settings: intraperitoneal, median survival treated/control
Experimental: (§1) Complexes according to the invention were tested for antitumour activity against L-1210 leukaemia, ADJ/PC6A tumour or S180 solid tumour in mice. In the results which follow, dosages are quoted in mg/Kg body weight and the evaluation of effectiveness (% T/C) against L1210 is calculated as the median survival time of treated mice divided by the median survival time of untreated (control) mice expressed as a percentage. Thus a % T/C of 100 indicates no activity and a % T/C of greater than or equal to 125 is considered to be indicative of significant antitumour activity.
(§2) Against a solid tumour, the % T/C is a measure of tumour regression and is the percentage of tumour weight in treated mice to that in control mice. Against ADJ/PC6A and S180, several dose levels were given and ranged from lethal to non-tumour inhibitory, allowing the calculation of LD50 and ID90 (minimum dose to cause 90% tumour inhibition) in one experiment. The ratio LD50 /ID90 is the therapeutic index and is a measure of the selectivity of the compound as an anti-tumour agent. […]

stability in solution = type: physicochemical
Experimental: cis-[PtI2 (n-C4 H9 NH2)2 ] (120 g, 0.20 mol) was slurried with a warm solution of silver nitrate (66 g, 0.38 mol) in water (200 ml). The mixture was stirred for 3 hours during which time the yellow suspension turned pale grey. The mixture was then treated with charcoal, stirred and filtered through a porosity 4 sinter. The residue was washed once with 30 ml of water and the washings were combined with the filtrate (total volume 300 ml).
Cis-[PtI2 (n-C3 H7 NH2)2 ] (127 g, 0.22 mol) was slurried with a warm (50° C.) solution of silver nitrate (73 g, 0.43 mol) in 130 mls of water. The mixture was stirred for 4 hours during which time the yellow suspension turned dark grey. The mixture was then treated with charcoal, stirred and filtered through a porosity 4 sinter. The residue was triturated with water (20 mls) and the filtrates combined to give a clear orange solution (total volume 150 mls).
The crude oxalto complex was recrystallised as follows. The product was added to a stirred, vigorously boiling aqueous solution of 0.1 M potassium oxalate (800 ml). The solution was boiled for 30 minutes to effect dissolution during which time the solution darkened owing to some platinum formation. The solution was then treated with charcoal, stirred, cooled to 80° C. and filtered through a porosity 4 sinter. White crystals formed on cooling the filtrate to 25° C. and after storage for 3 days at 5° C., the product was filtered off, washed with water and air dried.
The solution was concentrated to a volume of 30-40 mls, treated with charcoal and filtered through a porosity 4 sinter. A white solid formed when the solution was cool. This was filtered off on a porosity 3 sinter. More white solid was obtained when an equal volume of water was added to the ethanolic filtrate. The purified products were combined, washed with water, ethanol and dried in vacuo.

ADJ/PC6A tumour = assay: antitumour activity against ADJ/PC6A tumour in mice (ID90, LD50, therapeutic index); type: in vivo; settings: intraperitoneal single dose in arachis oil
Experimental: Complexes according to the invention were tested for antitumour activity against L-1210 leukaemia, ADJ/PC6A tumour or S180 solid tumour in mice. […] Thus a % T/C of 100 indicates no activity and a % T/C of greater than or equal to 125 is considered to be indicative of significant antitumour activity.
Against a solid tumour, the % T/C is a measure of tumour regression and is the percentage of tumour weight in treated mice to that in control mice. Against ADJ/PC6A and S180, several dose levels were given and ranged from lethal to non-tumour inhibitory, allowing the calculation of LD50 and ID90 (minimum dose to cause 90% tumour inhibition) in one experiment. The ratio LD50 /ID90 is the therapeutic index and is a measure of the selectivity of the compound as an anti-tumour agent. All compounds were administered intraperitoneally as a single dose suspended in arachis oil.

S180 solid tumour = assay: antitumour activity against S180 solid tumour in mice (T/C); type: in vivo; settings: S180, @ 10 mg/Kg, carrier water, intraperitoneal
Experimental: as §1, §2

[1] = aqueous solution, on standing (tendency to darken)

For `CCCN.CCCN.O=C1[O][Pt][O]C1=O` [Bis-(n-propylamino)oxalatoplatinum(II), Oxalatobis(n-propylamine)platinum(II)], the “% T/C” value (L-1210 leukaemia; L1210, daily dose for 9 days @ 15 mg/Kg) was 143%, the “% T/C” value (L-1210 leukaemia; L1210, daily dose for 9 days @ 30 mg/Kg) was 143% and the “% T/C” value (L-1210 leukaemia; L1210, single dose @ 59 mg/Kg) was 129%.
With `CCCCCN.CCCCCN.O=C1[O][Pt][O]C1=O` [Example 12, Oxalatobis(n-pentylamine)platinum(II)] the stability (stability in solution; recrystallisation from hot ethanol) was “without apparent decomposition”.
In the case of “n-propylamine diaquo complex [Example 2]”, the stability (stability in solution; [1]) is reported as “slow decomposition to platinum”.
With `CCCCN.CCCCN.[Cl][Pt][Cl]` [Cis-bis-(n-butylamine)dichloroplatinum(II)] the “ID90 (minimum dose to cause 90% tumour inhibition)” value (ADJ/PC6A tumour) was less than 10 mg/kg, the LD50 (ADJ/PC6A tumour) was 110 mg/kg and the “TI (therapeutic index, ratio LD50/ID90)” value (ADJ/PC6A tumour) was greater than 11.
With `CCCCCN.CCCCCN.[Cl][Pt][Cl]` [cis-dichlorobis(1-aminopentane)platinum(II)] the “ID90 (minimum dose to cause 90% tumour inhibition)” value (ADJ/PC6A tumour) was 37 mg/kg, the LD50 (ADJ/PC6A tumour) was 92 mg/kg and the “TI (therapeutic index, ratio LD50/ID90)” value (ADJ/PC6A tumour) was 2.5.
For `CCCCN.CCCCN.O=C(CCl)[O][Pt][O]C(=O)CCl` [Cis-bis (n-butylamine) bis(chloroacetato) platinum (II)], the “% T/C” value (L-1210 leukaemia; L1210, daily dose for 9 days @ 32 mg/kg) was 136% and the “% T/C” value (L-1210 leukaemia; L1210, single dose @ 256 mg/Kg) was 107%.
For `CCN.CCN.O=C1[O][Pt][O]C1=O` [Bis-(ethylamine)oxalatoplatinum(II)], the “T/C (tumour weight in treated mice to that in control mice)” value (S180 solid tumour) was 21%.
For `CCCN.CCCN.O=C(CCl)[O][Pt][O]C(=O)CCl` [Cis-bis(chloroacetato) bis(n-propylamine)platinum II], the “% T/C” value (L-1210 leukaemia; L1210, daily dose for 9 days @ 6 mg/Kg) was 225%, the “% T/C” value (L-1210 leukaemia; L1210, single dose @ 12 mg/Kg) was 167% and the “% T/C” value (L-1210 leukaemia; L1210, single dose @ 24 mg/Kg) was 167%.
For `CCCCN.CCCCN.O=C1[O][Pt][O]C1=O` [Example 8, Bis (n-butylamine)oxalatoplatinum(II)], the stability (stability in solution; boiling 0.1 M potassium oxalate) was “instability”.
In the case of n-butylamine diaquo complex [Example 1], the stability (stability in solution; [1]) is reported as “slow decomposition to platinum”.
With `CCCN.CCCN.[Cl][Pt][Cl]` [Cis-bis(n-propylamine)dichloroplatinum(II)] the “% T/C” value (L-1210 leukaemia; L1210, daily dose for 9 days @ 4 mg/kg) was 157% and the “% T/C” value (L-1210 leukaemia; L1210, single dose @ 8 mg/Kg) was 157%.
